# Data as given in ChEMBL document CHEMBL5113482, “Discovery of fused benzimidazole-imidazole autophagic flux inhibitors for treatment of triple-negative breast cancer” (Eur J Med Chem, 2022).
# The source made the active and inactive calls. The calls are words filed in the database; no cut-off is given here.
# Experiments:
# MDA-MB-231 [1] = assay: Antiproliferative activity against human MDA-MB-231 cells assessed as cell growth inhibition measured after 48 hrs by MTT assay; type: functional, cell-based; settings: MDA-MB-231, 48 h
# MDA-MB-231 [2] = assay: Inhibition of colony formation in human MDA-MB-231 cells at 5 to 20 umol/l pretreated for 48 hrs followed by replacement of fresh medium and measured after 15 days by crystal violet staining based assay; type: functional, cell-based; settings: dose 5-20 µmol/L
# MDA-MB-468 [3] = assay: Inhibition of autophagy in human MDA-MB-468 cells assessed as increase in LC3B-II expression measured after 48 hrs by immunofluorescence analysis; type: functional, cell-based; settings: dose 5-20 µM
# Nibrin (Homo sapiens) = molecular target: T1, Nibrin (Homo sapiens) (UniProt O60934); assay: Activation of NBS1 phosphorylation in human MDA-MB-231 cells at 5 to 20 uM measured after 6 to 48 hrs by Western blot analysis; type: cell-based; settings: filed as activator, dose 5-20 µM, time 6-48 hrs
# T1 sequence (whole entry): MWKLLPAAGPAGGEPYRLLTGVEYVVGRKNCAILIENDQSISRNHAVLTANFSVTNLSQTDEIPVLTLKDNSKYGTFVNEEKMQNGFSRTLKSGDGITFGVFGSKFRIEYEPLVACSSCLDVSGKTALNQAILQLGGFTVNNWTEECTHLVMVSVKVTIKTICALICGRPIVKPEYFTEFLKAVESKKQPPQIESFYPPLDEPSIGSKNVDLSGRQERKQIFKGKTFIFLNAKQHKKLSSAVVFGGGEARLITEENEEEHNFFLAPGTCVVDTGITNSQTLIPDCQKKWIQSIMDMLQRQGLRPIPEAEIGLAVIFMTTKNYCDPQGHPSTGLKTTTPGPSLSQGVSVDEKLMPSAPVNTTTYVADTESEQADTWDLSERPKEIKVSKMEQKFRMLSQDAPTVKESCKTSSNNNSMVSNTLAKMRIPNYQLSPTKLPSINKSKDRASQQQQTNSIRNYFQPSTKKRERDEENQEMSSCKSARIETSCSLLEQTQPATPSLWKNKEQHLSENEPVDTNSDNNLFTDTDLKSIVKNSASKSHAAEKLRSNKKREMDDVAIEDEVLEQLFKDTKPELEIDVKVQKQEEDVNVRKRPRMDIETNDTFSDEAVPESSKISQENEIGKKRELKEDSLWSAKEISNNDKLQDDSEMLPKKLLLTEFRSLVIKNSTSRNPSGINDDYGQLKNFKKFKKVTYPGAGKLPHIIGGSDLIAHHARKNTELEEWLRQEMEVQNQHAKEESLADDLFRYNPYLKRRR
# MDA-MB-231 [4] = assay: Inhibition of autophagic flux in human MDA-MB-231 cells assessed as increase in nuclear p62 expression measured after 48 hrs by Western blot analysis; type: functional, cell-based; settings: dose 5-20 µM, DDE = dose-dependent effect
# MDA-MB-468 [5] = assay: Inhibition of autophagic flux in human MDA-MB-468 cells assessed as increase in cytoplasmic p62 expression measured after 48 hrs by Western blot analysis; type: functional, cell-based; settings: dose 5-20 µM, DDE = dose-dependent effect
# MDA-MB-231 [6] = assay: Inhibition of autophagic flux in human MDA-MB-231 cells assessed as reduction in RNF8 expression at 5 to 20 uM measured after 6 to 48 hrs by Western blot analysis; type: functional, cell-based; settings: dose 5-20 µM, time 6-48 hrs
# MDA-MB-468 [7] = assay: Inhibition of autophagic flux in human MDA-MB-468 cells assessed as reduction in polyubiquitinated H2A expression measured after 48 hrs by Western blot analysis; type: functional, cell-based
# MDA-MB-468 [8] = assay: Cell cycle arrest in human MDA-MB-468 cells assessed as increase in accumulation at S-phase at 5 to 20 uM measured after 48 hrs by propidium iodide staining based flow cytometry; type: functional; settings: dose 5-20 µM
# MDA-MB-231 [9] = assay: Cell cycle arrest in human MDA-MB-231 cells assessed as reduction in CDK2 expression measured after 48 hrs by Western blot analysis; type: functional, cell-based; settings: dose 5-20 µM, DDE = dose-dependent effect
# MDA-MB-468 [10] = assay: Cell cycle arrest in human MDA-MB-468 cells assessed as reduction in cyclin A expression measured after 48 hrs by Western blot analysis; type: functional, cell-based; settings: dose 5-20 µM, DDE = dose-dependent effect
# MDA-MB-468 [11] = assay: Cell cycle arrest in human MDA-MB-468 cells assessed as reduction in CDK1 expression measured after 48 hrs by Western blot analysis; type: functional, cell-based; settings: dose 5-20 µM, DDE = dose-dependent effect
# MDA-MB-468 [12] = assay: Induction of mitochondrial membrane potential loss in human MDA-MB-468 cells at 20 uM measured after 48 hrs by JC-1 staining based assay relative to control; type: functional
# MDA-MB-231 [13] = assay: Induction of apoptosis in human MDA-MB-231 cells assessed as increase in cleaved caspase-3 expression measured after 48 hrs by Western blot analysis; type: functional, cell-based; settings: dose 5-20 µM, DDE = dose-dependent effect
# MDA-MB-468 [14] = assay: Induction of apoptosis in human MDA-MB-468 cells assessed as increase in Bax expression measured after 48 hrs by Western blot analysis; type: functional, cell-based; settings: dose 5-20 µM, DDE = dose-dependent effect
# MDA-MB-231 [15] = assay: Antitumor activity against human MDA-MB-231 cells xenografted in NOD/SCID mouse assessed as reduction in tumor size at 5 to 15 mg/kg, ip administered at 3 days interval for 24 days and measured on day 25; type: functional, organism-based; settings: dose 5-15 mg/kg, time 25.0 day
# MDA-MB-231 [16] = assay: Antitumor activity against human MDA-MB-231 cells xenografted in ip dosed NOD/SCID mouse assessed as reduction in tumor growth administered at 3 days interval for 24 days and measured during compound dosing by caliper method; type: functional, organism-based; settings: dose 5-15 mg/kg, time 24.0 day, DDE = dose-dependent effect
# MDA-MB-231 [17] = assay: Antitumor activity against human MDA-MB-231 cells xenografted in NOD/SCID mouse assessed as reduction in cell count at 5 to 15 mg/kg, ip administered at 3 days interval for 24 days and measured on day 25 by H and E staining based assay; type: functional, organism-based; settings: dose 5-15 mg/kg, time 25.0 day
# MDA-MB-231 [18] = assay: Antitumor activity against human MDA-MB-231 cells xenografted in ip dosed NOD/SCID mouse assessed as upregulation of LC3B-II expression administered at 3 days interval for 24 days and measured on day 25 by Western blot analysis; type: functional, organism-based; settings: dose 5-15 mg/kg, time 25.0 day, DDE = dose-dependent effect
smiles,measurement,setting,value
O=C(NC1CCCCC1)c1[nH]cnc1-c1nc2ccccc2[nH]1,IC50,MDA-MB-231 [1],8.3 µM
same,inhibition,MDA-MB-231 [2],Active
same,inhibition,MDA-MB-468 [3],Active
same,Activity,Nibrin (Homo sapiens),Active
same,inhibition,MDA-MB-231 [4],Dde
same,inhibition,MDA-MB-468 [5],Dde
same,inhibition,MDA-MB-231 [6],Active
same,inhibition,MDA-MB-468 [7],Active
same,Activity,MDA-MB-468 [8],Active
same,Activity,MDA-MB-231 [9],Dde
same,Activity,MDA-MB-468 [10],Dde
same,Activity,MDA-MB-468 [11],Dde
same,Activity,MDA-MB-468 [12],50%
same,Activity,MDA-MB-231 [13],Dde
same,Activity,MDA-MB-468 [14],Dde
same,Activity,MDA-MB-231 [15],Active
same,TGI,MDA-MB-231 [16],Dde
same,Activity,MDA-MB-231 [17],Active
same,Activity,MDA-MB-231 [18],Dde
